From BindingDB's records for doi:10.1016/S0006-291X(02)00356-X (Katholieke Universiteit Leuven, 2002)

Target: T1, Promotilin (Homo sapiens, UniProt P12872)
T1 sequence (P12872 whole entry): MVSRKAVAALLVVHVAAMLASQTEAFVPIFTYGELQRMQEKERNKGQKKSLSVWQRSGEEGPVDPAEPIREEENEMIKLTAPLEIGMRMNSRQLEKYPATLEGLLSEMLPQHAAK

Molecule: CC[C@H]1OC(=O)[C@H](C)[C@@H](O[C@H]2C[C@@](C)(OC)[C@@H](O)[C@H](C)O2)[C@H](C)[C@@H](O[C@@H]2O[C@H](C)C[C@H](N(C)C)[C@H]2O)[C@@]2(C)CC(C)=C(O2)[C@H](C)[C@@H](O)[C@]1(C)O [Erythromycin-A enol ether]
- Ki: 8.32 nM

Molecule: CC[C@H]1OC(=O)[C@H](C)[C@@H](O[C@H]2C[C@@](C)(OC)[C@@H](O)[C@H](C)O2)[C@H](C)[C@@H](O[C@@H]2O[C@H](C)C[C@H](N(C)C)[C@H]2O)C2(C)CC(C)=C(O2)[C@H](C)[C@@H](O)[C@H]1C (some centres undefined) [Erythromycin-B enol ether]
- Ki: 7.59 nM

Molecule: CC[C@H]1OC(=O)[C@H](C)[C@@H](O[C@H]2C[C@@](C)(OC)[C@@H](O)[C@H](C)O2)[C@H](C)[C@@H](O[C@@H]2O[C@H](C)C[C@H](N(C)C)[C@H]2O)[C@](C)(O)C[C@@H](C)C(=O)[C@H](C)[C@@H](O)[C@H]1C [Erythromycin-B]
- Ki: 145 nM

Molecule: CC[C@H]1OC(=O)[C@H](C)[C@@H](O[C@H]2C[C@@](C)(OC)[C@@H](O)[C@H](C)O2)[C@H](C)[C@@H](O[C@@H]2O[C@H](C)C[C@H](N(C)CC)[C@H]2O)[C@](C)(O)C[C@@H](C)C(=O)[C@H](C)[C@@H](O)[C@]1(C)O [N-ethyl, N-Methyl Erythromycin-A]
- Ki: 240 nM

Molecule: CC[C@H]1OC(=O)[C@H](C)[C@@H](O[C@H]2C[C@@](C)(OC)[C@@H](O)[C@H](C)O2)[C@H](C)[C@@H](O[C@@H]2O[C@H](C)C[C@H](N(C)CC)[C@H]2O)[C@@]2(C)CC(C)=C(O2)[C@H](C)[C@@H](O)[C@]1(C)O [N-ethyl, N-methyl Erythromycin-A enol ether]
- Ki: 6.03 nM

Molecule: CC[C@H](C)[C@H](NC(=O)[C@@H]1CCCN1C(=O)[C@@H](NC(=O)[C@@H](N)Cc1ccccc1)C(C)C)C(=O)N[C@@H](Cc1ccccc1)C(=O)N[C@H](C(=O)N[C@@H](Cc1ccc(O)cc1)C(=O)NCC(=O)N[C@@H](CCC(=O)O)C(=O)N[C@@H](CC(C)C)C(=O)N[C@@H](CCC(N)=O)C(=O)N[C@@H](CCCN=C(N)N)C(=O)N[C@@H](CC(C)C)C(=O)N[C@@H](CCC(N)=O)C(=O)N[C@@H](CCC(=O)O)C(=O)N[C@@H](CCCCN)C(N)=O)[C@@H](C)O [[leu13]pMOT(1-16)]
- Ki: 2.14 nM

Molecule: H-FVAIFTYGELQRLQ-NH2 [[ala3,leu13]pMOT(1-14)]
- Ki: 1.32 nM

Molecule: H-FVPAFTYGELQRLQ-NH2 [[ala4,leu13]pMOT(1-14)]
- Ki: 2570 nM

Molecule: H-FVPIATYGELQRLQ-NH2 [[ala5,leu13]pMOT(1-14)]
- Ki: 28.8 nM

Molecule: H-FVPIF-NH2 [[leu13]pMOT(1-5)]
- Ki: 8910 nM

Molecule: H-FVPIFAYGELQRLQ-NH2 [[ala6,leu13]pMOT(1-14)]
- Ki: 46.8 nM

Molecule: H-FVPIFTAGELQRLQ-NH2 [[ala7,leu13]pMOT(1-14)]
- Ki: 1450 nM

Molecule: H-FVPIFTY-NH2 [[leu13]pMOT(1-7)]
- Ki: 6920 nM

Molecule: H-FVPIFTYAELQRLQ-NH2 [[ala8,leu13]pMOT(1-14)]
- Ki: 36.3 nM

Molecule: H-FVPIFTYGALQRLQ-NH2 [[ala9,leu13]pMOT(1-14)]
- Ki: 75.9 nM

Molecule: H-FVPIFTYGE-NH2 [[leu13]pMOT(1-9)]
- Ki: 4070 nM

Molecule: H-FVPIFTYGEAQRLQ-NH2 [[ala10,leu13]pMOT(1-14)]
- Ki: 5.01 nM

Molecule: H-FVPIFTYGELARLQ-NH2 [[ala11,leu13]pMOT(1-14)]
- Ki: 4.57 nM

Molecule: H-FVPIFTYGELQ-NH2 [[leu13]pMOT(1-11)]
- Ki: 89.1 nM

Molecule: H-FVPIFTYGELQALQ-NH2 [[ala12,leu13]pMOT(1-14)]
- Ki: 6.31 nM

Molecule: H-FVPIFTYGELQRAQ-NH2 [[ala13,leu13]pMOT(1-14)]
- Ki: 7.24 nM

Molecule: H-FVPIFTYGELQRLA-NH2 [[ala14,leu13]pMOT(1-14)]
- Ki: 7.08 nM

Molecule: H-FVPIFTYGELQRLQEKERN-NH2 [[leu13]pMOT(1-19)]
- Ki: 0.98 nM

Molecule: H-FVPIFTYGELQRLQEKERNKGQ-OH [[leu13]pMOT(1-22)]
- Ki: 1 nM
